Literature values in publication PMC6317935 (ChemistryOpen, 2018).

Tested on: FXR
Conditions: read-out: EC50 (FXR agonist)

EC50 | SMILES
25 nM | COC(=O)/C=C/c1cccc(N(Cc2ccc(-c3ccc(N(C)C)cc3)cc2)C(=O)C2CCCCC2)c1 [Compound 3, Fexaramine]
4 nM | CC(C)OC(=O)C1=CN(C(=O)c2ccc(F)c(F)c2)CC(C)(C)c2c1[nH]c1ccccc21 [Compound 4, WAY‐362450]
